Here are results for 27 compounds from patent US20050148633A1 (priority 2003, published 2005).

Holding throughout (type): cell-based
The target in one assay is T1, TRPM4 (Homo sapiens, UniProt Q8TD43).
T1 construct: FLAG (N); expressed in transfected cells; host or cells: HEK 293 (tetracycline-induced FLAG-humanTRPM4/pCDNA4/TO); also Jurkat cells (endogenous TRPM4)
Description: Activation of TRPM4 channel, whole-cell patch clamp in Jurkat cells and HEK-293 cells overexpressing TRPM4. The following applies: free intracellular calcium 300 nM. Here is the method:
Human leukemic T cells (Jurkat cells) and HEK 293 cells transfected with the FLAG-humanTRPM4/pCDNA4/TO construct were grown on glass coverslips with DMEM medium supplemented with 10% FBS, blasticidin (5 μg/mL) and zeocin ([…]). TRPM4 expression was induced one day before use by adding 1 μg/mL tetracycline to the culture medium and patch clamp experiments were performed 16-24 hours post-induction (for additional details see Launay et al. (2000)).
Patch clamp experiments were performed in the tight-seal whole-cell configuration at 21-25° C. High resolution current recordings were acquired by a computer-based patch clamp amplifier system (EPC-9, HEKA, Lambrecht, Germany). Patch pipettes had resistances between […] after filling with the standard intracellular solution. […] Capacitive currents and series resistance were determined and corrected before each voltage ramp using the automatic capacitance compensation of the EPC-9. The low resolution temporal development of membrane currents was assessed by extracting the current amplitude at −80 mV or +80 mV from individual ramp current records.
TRPM4 currents were measured in Jurkat cells and HEK-293 cells overexpressing TRPM4. […]
Background: Patch clamp records ionic current or voltage across a cell membrane.

The test system of another assay is IL-2 production. Description: Inhibition of IL-2 production in PHA-activated Jurkat cells (ELISA). The following applies: Homo sapiens. Here is the method:
Jurkat cells were placed in a 96 well plate (0.5 million cells per well in 1% FBS medium) then test compounds of this invention were added at different concentrations. After 10 minutes, the cells were activated with PHA (final concentration 2.5 μg/mL) and incubated for 20 hours at 37° C. under CO2. The final volume was 200 μL. Following incubation, the cells were centrifuged and the supernatants collected and stored at −70° C. prior to assaying for IL-2 production. A commercial ELISA kit (IL-2 Eli-pair, Diaclone Research, Besancon, France) was used to detect production of IL-2, from which dose response curves were obtained. The IC50 value was calculated as the concentration at which 50% of maximum IL-2 production after stimulation was inhibited versus a non-stimulation control.

The subject of another assay is RBL cells. Nature of the assay: Inhibition of degranulation in RBL cells. The following applies: Rattus norvegicus, anti-DNP IgE / anti-IgE, read-out: concentration at which 50% of degranulation is inhibited. Here is the method:
Procedure: • The day before the assay was performed, RBL cells, that had been grown to confluence in a 96 well plate, were incubated at 37° C. for at least 2 hours. The medium was replaced in each well with 100 μL of fresh medium containing of anti-DNP IgE.
On the following day, the cells were washed once with PRS (2.6 mM glucose and 0.1% BSA) and 160 μL of PRS was added to each well. The test compound was addded to a well in a 20 μL solution at 10× of the desired concentration and incubated for 20 to 40 minutes at 37° C. 20 μL of 10× mouse anti-IgE (10 μL/mL). Maximum degranulation occurred between 15 to 40 minutes after addition of anti-IgE.

Another assay deals with INF-γ. Description: Cytokine inhibition in PHA-stimulated primary human PBMCs: INF-γ. The following applies: PBMC. The method, then: (§1) Cytokine production was measured using commercially available human ELISA assay kits (from Cell Science, Inc.) following the manufacturers instructions.
In the next assay the test system is IL-2. Nature of the assay: Cytokine inhibition in PHA-stimulated primary human PBMCs: IL-2. The note with it: PBMC. The method, then:
as §1

For another assay, the system named is IL-10. Description: Cytokine inhibition in PHA-stimulated primary human PBMCs: IL-10. The note with it: PBMC. Here is the method: as §1
The next assay concerns IL-5. Nature of the assay: Cytokine inhibition in PHA-stimulated primary human PBMCs: IL-5. The following applies: PBMC. Here is the method:
as §1

For another assay, the system named is IL-4. Nature of the assay: Cytokine inhibition in PHA-stimulated primary human PBMCs: IL-4. The note with it: PBMC. The method, then:
as §1

The test system of a further assay is IL-13. Description: Cytokine inhibition in PHA-stimulated primary human PBMCs: IL-13. The following applies: PBMC. Here is the method:
as §1

The next assay has as its system GM-CSF. Description: Cytokine inhibition in PHA-stimulated primary human PBMCs: GM-CSF. The note with it: PBMC. The method, then:
as §1

Another assay relates to TNF-α. Nature of the assay: Cytokine inhibition in PHA-stimulated primary human PBMCs: TNF-α. The note with it: PBMC. The method, then: as §1
The mark [1] stands for this setting: PHA 2.5 μg/mL, 20 hours, value bins.

T1 sequence (Q8TD43 whole entry): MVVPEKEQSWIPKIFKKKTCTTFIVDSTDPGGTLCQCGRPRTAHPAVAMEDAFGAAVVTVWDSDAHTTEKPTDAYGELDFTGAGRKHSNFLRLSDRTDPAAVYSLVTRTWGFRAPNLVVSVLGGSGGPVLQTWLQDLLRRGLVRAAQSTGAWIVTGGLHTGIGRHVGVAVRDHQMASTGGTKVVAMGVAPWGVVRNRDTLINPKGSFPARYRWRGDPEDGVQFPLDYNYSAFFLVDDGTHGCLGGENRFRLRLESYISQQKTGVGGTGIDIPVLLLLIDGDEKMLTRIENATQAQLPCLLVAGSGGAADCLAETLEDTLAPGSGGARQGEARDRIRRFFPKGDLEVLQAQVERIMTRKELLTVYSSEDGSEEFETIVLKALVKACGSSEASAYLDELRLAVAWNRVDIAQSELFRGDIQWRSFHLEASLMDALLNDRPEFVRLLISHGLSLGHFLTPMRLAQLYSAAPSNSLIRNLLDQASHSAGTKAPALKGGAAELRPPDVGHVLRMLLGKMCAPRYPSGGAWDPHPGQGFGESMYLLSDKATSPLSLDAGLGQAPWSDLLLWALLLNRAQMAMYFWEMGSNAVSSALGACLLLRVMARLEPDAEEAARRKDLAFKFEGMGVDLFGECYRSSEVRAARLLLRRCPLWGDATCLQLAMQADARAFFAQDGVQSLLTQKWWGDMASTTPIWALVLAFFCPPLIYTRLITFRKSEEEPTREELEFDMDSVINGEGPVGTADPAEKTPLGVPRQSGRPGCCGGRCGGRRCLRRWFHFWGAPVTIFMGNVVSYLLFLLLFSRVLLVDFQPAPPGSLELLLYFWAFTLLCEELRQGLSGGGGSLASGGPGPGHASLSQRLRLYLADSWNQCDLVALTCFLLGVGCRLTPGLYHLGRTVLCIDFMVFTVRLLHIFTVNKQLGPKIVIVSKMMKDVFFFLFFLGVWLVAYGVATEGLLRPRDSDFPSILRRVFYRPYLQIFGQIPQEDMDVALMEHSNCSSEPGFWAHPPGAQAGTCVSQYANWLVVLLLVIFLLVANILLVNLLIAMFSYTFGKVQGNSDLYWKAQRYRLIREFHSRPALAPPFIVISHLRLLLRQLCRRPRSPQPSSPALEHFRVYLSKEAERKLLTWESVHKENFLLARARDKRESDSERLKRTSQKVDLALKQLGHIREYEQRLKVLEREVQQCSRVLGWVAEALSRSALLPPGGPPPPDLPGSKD

As a reminder, the EC50 is the concentration giving half of the maximal effect. Turning to `Cc1nnsc1C(=O)Nc1ccc(-c2cc(C(F)(F)F)ccc2C(F)(F)F)cc1` [Compound 24, 4-Methyl-[1,2,3]thiadiazole-5-carboxylic acid (2′,5′-bis-trifluoromethyl-biphenyl-4-yl)-amide], the EC50 on TRPM4 lay within 20 to 50 nM. This compound also displayed an IC50 with IL-2 production (setting [1]) below 100 nM. As to `COc1ccc(CCCOC(Cn2ccnc2)c2ccc(OC)cc2)cc1` (centres unmarked) [SKF96365, reference compound], the IC50 with RBL cells is above 20 µM. As for `CSc1ccccc1-c1ccc(NC(=O)c2ccncc2C)cc1` [Compound 75, 3-methyl-pyridine-4-carboxylic acid (2′-methylsulfanyl-biphenyl-4-yl)-amide], the IC50 in the assay on INF-γ was 23 nM; in the assay with IL-2 it was 4 nM; in the assay with IL-10 it was above 1000 nM; in the assay with IL-2 production (setting [1]), below 100 nM; in the assay with IL-5, 7 nM; in the assay with IL-4, 103 nM. Moreover, the results for the IC50 with IL-13, with GM-CSF and in the assay with TNF-α were 15 nM, 152 nM and 81 nM, respectively. For `CN(C)C(=O)c1ccccc1-c1ccc(NC(=O)c2cccc(F)c2F)cc1` [Compound 6, 4′-(2,3-Difluoro-benzoylamino)-biphenyl-2-carboxylic acid dimethylamide], the IC50 in the assay on IL-2 production (PHA, bin >1 μM) was above 1000 nM. Same read-out and setting: the value for `O=C(Nc1ccc(-c2ccccc2C(F)(F)F)cc1)c1cccs1` [Compound 9, Thiophene-2-carboxylic acid (2′-trifluoromethyl-biphenyl-4-yl)-amide] was above 1000 nM. `Cc1cc(C(=O)Nc2ccc(-c3cc(C(F)(F)F)ccc3C(F)(F)F)cc2)n(C)n1` [Compound 40, 1,3-Dimethyl-1H-pyrazol-5-carboxylic acid (2′,5′-bis-trifluoromethyl-biphenyl-4-yl)-amide] came in with an IC50 in the assay on IL-2 production (setting [1]) of 100 to 500 nM.

In the case of `COc1ccc(N(C)C)c(-c2ccc(NC(=O)c3ccncc3C)cc2)c1` [Compound 80, 3-methyl-pyridine-4-carboxylic acid {2′-(N,N-dimethylamino)-5′-methoxybiphenyl-4-yl}-amide], in the assay with IL-2 production (setting [1]), the IC50 was 100 to 500 nM. The compound `O=C(Nc1ccc(-n2c(-c3cccs3)nnc2C(F)(F)F)cc1)c1cccc(F)c1F` [Compound 35] yielded an IC50 in the assay on IL-2 production (PHA, bin 500 nM-1 μM) of 500 to 1000 nM.

For `O=C(Nc1ccc(-c2cc(C(F)(F)F)ccc2Cl)cc1)c1cccc(F)c1F` [Compound 23], the EC50 at TRPM4 is 20 to 50 nM. The compound also returned an IC50 in the assay with IL-2 production (setting [1]) below 100 nM. For the compound `N#Cc1cc(C(F)(F)F)cnc1-c1ccc(NC(=O)c2cccc(F)c2F)cc1` [Compound 37, N-[4-(3-cyano-5-trifluoromethyl-pyrid-2-yl)-phenyl]-2,3-difluoro-benzamide], the IC50 with IL-2 production (setting [1]) was in the range of 100 to 500 nM. Still for that read-out and setting: the value for `COc1ccc(OC)c(-c2ccc(NC(=O)c3ccncc3C)cc2)c1` [Compound 63, 3-methyl-pyridine-4-carboxylic acid (2′,5′-dimethoxy-biphenyl-4-yl)-amide] was below 100 nM.

As to `O=C(Nc1ccc(-c2ccccc2C(F)(F)F)c(C(F)(F)F)c1)c1cccc(F)c1F` [Compound 4, N-(2,2′-Bis-trifluoromethyl-biphenyl-4-yl)-2,3-difluoro-benzamide], the IC50 in the assay with IL-2 production (PHA, bin 500 nM-1 μM) fell in the range of 500 to 1000 nM. Consider `Cc1ccccc1C(=O)Nc1ccc(-c2cc(C(F)(F)F)ccc2C(F)(F)F)cc1` [Compound 45], for which the IC50 with IL-2 production (setting [1]) is below 100 nM. On the same count and under the same terms, the value for `COc1ccc(C(C)=O)cc1-c1ccc(NC(=O)c2cccc(F)c2F)cc1` [Compound 50, N-(2′-methoxy-5′-acetyl-biphenyl-4-yl)-2,3-difluorobenzamide] was below 100 nM. For the compound `CCN(CC)C(=O)Nc1ccc(-c2cc(C(F)(F)F)ccc2C(F)(F)F)cc1` [Compound 131, N′,N′-diethyl-N-(2′,5′-bis-trifluoromethylbiphenyl-4-yl) urea], the IC50 in the assay with IL-2 production (setting [1]) was below 100 nM; with IL-2 production (PHA, bin 500 nM-1 μM), 500 to 1000 nM.

As for `O=C(Nc1ccc(-c2ccccc2C(F)(F)F)cc1)c1cccnc1` [Compound 7, N-(2′-Trifluoromethyl-biphenyl-4-yl)-nicotinamide], in the assay on IL-2 production (PHA, bin 500 nM-1 μM), the IC50 lay in the range of 500 to 1000 nM.

In the assay on IL-2 production (setting [1]), `Cc1ccc(C(F)(F)F)c(-c2ccc(NC(=O)c3c(F)cccc3F)cc2)c1` [Compound 126, N-(2′-trifluoromethyl-5′-methyl-biphenyl-4-yl)-2,6-difluoro-benzamide] gave an IC50 below 100 nM. In turn, `O=C(Nc1ccc(-c2cc(C(F)(F)F)ccc2F)cc1)c1cccc(F)c1F` [Compound 19, 2,3-Difluoro-N-(2′-fluoro-5′-trifluoromethyl-biphenyl-4-yl)-benzamide] showed an IC50 in the assay on IL-2 production (setting [1]) of 100 to 500 nM.

As to `Cc1cnccc1C(=O)Nc1ccc(-c2cc(C(F)(F)F)ccc2C(F)(F)F)cc1` [Compound 64, 3-methyl-pyridine-4-carboxylic acid (2′,5′-bis-trifluoromethyl-biphenyl-4-yl)-amide], the IC50 with IL-2 production (setting [1]) is below 100 nM. On the same count and under the same terms, the value for `COc1ccc(C)cc1-c1ccc(NC(=O)c2ccncc2C)cc1` [Compound 69, 3-methyl-pyridine-4-carboxylic acid (2′-methoxy-5′-methylbiphenyl-4-yl)-amide] was below 100 nM; that for `Cc1ccccc1-c1ccc(NC(=O)c2ccncc2F)cc1` [Compound 2, 3-Fluoro-N-(2′-methyl-biphenyl-4-yl)-isonicotinamide] was 100 to 500 nM. Still for that read-out and setting: for `O=C(Nc1ccc(-c2c(F)cccc2C(F)(F)F)cc1)c1cccc(F)c1F` [Compound 22, 2,3-Difluoro-N-(2′-fluoro-6′-trifluoromethyl-biphenyl-4-yl)-benzamide] the value was 100 to 500 nM. In the assay on IL-2 production (setting [1]), `Cc1cnccc1C(=O)Nc1ccc(-c2ccccc2C(C)C)cc1` [Compound 77, 3-methyl-pyridine-4-carboxylic acid (2′-isopropyl-biphenyl-4-yl)-amide] came in with an IC50 of 100 to 500 nM. Compound `O=C(Nc1ccc(-c2c(C(F)(F)F)cc3ccccn23)cc1)c1cccc(F)c1F` [Compound 21, 2,3-Difluoro-N-[4-(2-trifluoromethyl-indolizin-3-yl)-phenyl]-benzamide] showed an IC50 in the assay on IL-2 production (setting [1]) below 100 nM.

As for `O=C(Nc1ccc(-c2ccccc2C(F)(F)F)cc1F)c1cccc(F)c1F` [Compound 17, 2,3-Difluoro-N-(3-fluoro-2′-trifluoromethyl-biphenyl-4-yl)-benzamide], in the assay with IL-2 production (PHA, bin >1 μM), the IC50 is above 1000 nM. On to `Fc1cccc(F)c1CNc1ccc(-c2cc(C(F)(F)F)ccc2C(F)(F)F)cc1` [Compound 127, N-(2′,5′-bis-trifluoromethyl-biphenyl-4-yl)-2,6-difluoro-benzyl amine], for which the IC50 in the assay with IL-2 production (setting [1]) is below 100 nM. Regarding `COc1ccc(Cl)cc1-c1ccc(NC(=O)c2cc(F)c(F)cc2F)cc1` [Compound 84, N-(2′-methoxy-5′-chloro-biphenyl-4-yl)-2,4,5-trifluorobenzamide], in the assay with IL-2 production (setting [1]), the IC50 was below 100 nM.
